# Experiments:
# [1] = system: D-Amphetamine-induced locomotion; assay: Pharmacodynamic study in amphetamine-induced locomotion model; conditions: D-AMPH 1.5 mg/kg IP
# [2] = Pharmacokinetic evaluation of prodrugs in rats following intramuscular injection; format: in vivo, Male Sprague-Dawley rats; conditions: rat, IM injection, plasma drug concentration; dose (mg/kg) and excipients/formulation differ per table line
# Procedure: Pharmakokinetic Evaluation of Prodrugs in Rats Following Intramuscular Injection
# Male Sprague-Dawley rats (Charles River Laboratories, Wilmington, Mass.) were obtained. Approximately 24 rats were used in each study. Rats were approximately 350-375 g at time of arrival. Rats were housed 2 per cage with ad libitum chow and water. Environmental conditions in the housing room: 64-67° F., 30% to 70% relative humidity, and 12:12-h light:dark cycle. All experiments were approved by the institutional animal care and use committee.
# Rats were dosed IM by means of a 25 gauge, ⅝ in. needle with 1 cc syringe 0.3 mL suspension was withdrawn from the vial containing the test compound (see Table E). The […] was injected in the muscles of the hind limb after anesthesia with isoflourane. Blood samples were collected via a lateral tail vein after brief anesthesia with Isoflurane. A 27½ G needle and 1 cc syringe without an anticoagulant was used for the blood collection. Approximately […] of whole blood was collected at each sampling time-point of 6 hours, 24 hours and 2, 5, 7, 9, 12, 14, 21, 28, 35 days after administration. Once collected, whole blood was immediately transferred to tubes containing K2 EDTA, inverted 10-15 times and immediately placed on ice. The tubes were centrifuged for 2 minutes at >14,000 g's (11500 RPMs using Eppendorf Centrifuge 5417C, F45-30-11 rotor) at room temperature to separate plasma. Plasma samples were transferred to labeled plain tubes (MICROTAINER®; MFG# BD5962) and stored frozen at <−70° C.
# Drug concentrations in plasma samples were analyzed by liquid chromatography-mass spectroscopy using appropriate parameters for each compound. Half-life, volume of distribution, clearance, maximal concentration, and AUC were calculated by using WinNonlin Version 5.2 software.
# [3] = PO oral oil solution, 0.66, 10 and 20 mg/rat
# [4] = PO oral oil solution, at the higher dose of 20 mg
Structure (SMILES),"inhibition of increases in distance traveled caused by D-AMPH [1, 4]",AUC0-T [2] [ng·days/mL],also measured
"CCCCCC(=O)OCN1C(=O)CCc2ccc(OCCCCN3CCN(c4cccc(Cl)c4Cl)CC3)cc21 [Compound 4, (7-(4-(4-(2,3-dichlorophenyl)piperazin-1-yl)butoxy)-2-oxo-3,4-dihydroquinolin-1(2H)-yl)methyl hexanoate]",,,"dose dependence of inhibition of distance travelled [1, 3]: did not appear to be dose dependent; inhibition of increases in distance traveled caused by D-AMPH [1, 3]: significantly inhibited"
"CCCCCCCCCCCC(=O)OCN1C(=O)CCc2ccc(OCCCCN3CCN(c4cccc(Cl)c4Cl)CC3)cc21 [Compound 7, (7-(4-(4-(2,3-dichlorophenyl)piperazin-1-yl)butoxy)-2-oxo-3,4-dihydroquinolin-1(2H)-yl)methyl dodecanoate]",significantly inhibit,,
"CCCCCCCCCCCCCC(=O)OCN1C(=O)CCc2ccc(OCCCCN3CCN(c4cccc(Cl)c4Cl)CC3)cc21 [Compound 8, (7-(4-(4-(2,3-dichlorophenyl)piperazin-1-yl)butoxy)-2-oxo-3,4-dihydroquinolin-1(2H)-yl)methyl tetradecanoate]",,666.1,AUC0-14 [2]: 580.3 ng·days/mL
"CNC(=O)OCN1C(=O)CCc2ccc(OCCCCN3CCN(c4cccc(Cl)c4Cl)CC3)cc21 [Compound 47, (7-(4-(4-(2,3-dichlorophenyl)piperazin-1-yl)butoxy)-2-oxo-3,4-dihydroquinolin-1(2H)-yl)methyl methylcarbamate]",significantly inhibit,,
"CCOC(=O)OCN1C(=O)CCc2ccc(OCCCCN3CCN(c4cccc(Cl)c4Cl)CC3)cc21 [Compound 79, (7-(4-(4-(2,3-dichlorophenyl)piperazin-1-yl)butoxy)-2-oxo-3,4-dihydroquinolin-1(2H)-yl)methyl ethyl carbonate]",,940,

# Reference: US8796276B2, “Heterocyclic compounds for the treatment of neurological and psychological disorders” (Alkermes Pharma Ireland Limited, priority 2009, dated 2014)
